Test results published in US7960130B2, “Method for activation of transient receptor potential cation channel, subfamily A, member 1 using acetaldehyde” (Korea University Industry and Academy Cooperation Foundation, priority 2008, dated 2011).
Entries after “also recorded” stand apart in the source; their conditions may differ.

Experiments:
ICR mice = experiment: Acute hindpaw licking/flicking behavioral analysis; settings: for suppression of cinnamaldehyde-evoked licking/flicking behaviors: 10 mM cinnamaldehyde, 100 μM or 1 mM GdCl3, intradermal; for suppression of cinnamaldehyde-evoked licking/flicking behaviors / suppression of acetaldehyde-evoked licking/flicking behaviors: 10 mM camphor; for suppression of acetaldehyde-evoked licking/flicking behaviors: 100 mM acetaldehyde, 1 mM ruthenium red, 100 μM or 1 mM GdCl3 injected 5 min prior
Method: This analysis was performed in accordance with protocols approved by the University Committee on Laboratory Animals. Mice were acclimated for 1 h to the test environment prior to experiments. Drugs dissolved in vehicle (PBS containing 0.5% Tween 80) were injected into mice right hindpaws intradermally.

hTRPA1 = target: T1, hTRPA1 (Homo sapiens, UniProt O75762); experiment: Fluo-3 calcium imaging of hTRPA1-transfected HEK293T cells; type: cell-based; settings: for suppression of acetaldehyde-evoked intracellular calcium influx (hTRPA1): 1 mM acetaldehyde + 2 mM camphor or 10 μM ruthenium red, n=12; for elevation of intracellular calcium levels in hTRPA1-expressing cells: 1 mM acetaldehyde, 300 μM cinnamaldehyde, 10 mM acetic acid, 1% methanol, 1% ethanol
T1 construct: expressed in transfected cells; host or cells: HEK293T (ATCC CRL-11268), pcDNA3.1
Method: (§1) Particularly, the HEK293T cell line was transiently transfected with individual TRP channel plasmid (pcDNA3.1 containing polynucleotide encoding hTRPA1, rTRPV2, rTRPV1 or mTRPV4; pcDNA5/FRT containing polynucleotide encoding mTRPA1, hTRPV3 or mTRPM8) 3 μg per 35-mm dish and 600 ng/well of pcDNA3 (Invitrogen Corp., USA; containing green fluorescent protein (GFP) cDNA) using Fugene6 (Roche Diagnostics, USA) according to manufacturer's instruction. The transformed cells were cultured in DMEM/F12 containing 10% FBS and 1% penicillin/streptomycin in a CO2 incubator for 24 hours. The cells were replated onto poly-L-lysine-coated glass coverslips, followed by further culture for 10-24 hours.
(§2) Stock solutions were made using water or ethanol, and were diluted with test solutions before use.
(§3) Calcium imaging was performed with a confocal microscope (LSM5 Pascal, Carl Zeiss, Germany), and time-lapse images (488 nm excitation/514 nm emission) were collected every 3 seconds using Carl Zeiss ratio tool software (Carl Zeiss, Germany).
as §2

trigeminal neurons [1] = experiment: Whole-cell voltage-clamp recording of cultured trigeminal neurons; type: cell-based, mouse; settings: 1 mM acetaldehyde, co-application of 20 μM GdCl3 and 2 mM camphor
Method: Trigeminal ganglia were dissected out of decapitated adult ICR mice in cold PBS and treated with 1.5 mg/Ml of collagenase/dispase (Roche Diagnostics, USA) at 37 °C for 45 min, and then treated with 0.25% trypsin (Invitrogen, USA) for 15 min. The trigeminal neurons prepared thereby were then plated onto poly-L-lysine-coated coverslips in DMEM/F12 containing 10% FBS, 1% penicillin/streptomycin and 5 ng/Ml of 2.5S NGF (Invitrogen, USA), nerve growth factor (Invitrogen), followed by culture in a CO2 incubator for 48-72 hours.
Particularly, the extracellular solution (140 mM NaCl, 5 mM KCl, 2 mM CaCl2, 1 mM MgCl2, 10 mM HEPES; titrated to pH 7.4 with NaOH) and the pipette solution (140 mM CsCl, 5 mM EGTA, 10 mM HEPES, 2.0 mM MgATP, 0.2 mM NaGTP; titrated to pH 7.2 with CsOH) were used. The potential was holded at −60 mV for 250 ms, voltage-ramp pulsed from −80 mV to +80 mV for […] and returned to −60 mV for 250 ms, which was repeated without intersweep. This experiment was repeated 5 times.
The trigeminal neurons prepared by the same manner as described in Example 2 were delayed-treated with 1 mM acetaldehyde, followed by treatment of 20 μM GdCl3 (a TRPA1 blocker gadolinium; Sigma-Aldrich, USA) and 2 mM camphor. Then, whole-cell voltage-clamp recording was performed by the same manner as described in Example <5-2>.

TRPA1 = experiment: Whole-cell voltage-clamp recording of TRPA1 transfected cell line; type: cell-based
Method: as §1, §2
This experiment was repeated 5 times.

mTRPA1 = target: T2, mTRPA1 (Mus musculus, UniProt Q8BLA8); experiment: Fluo-3 calcium imaging of mTRPA1-transfected HEK293T cells; type: cell-based; settings: 1 mM acetaldehyde + 2 mM camphor or 10 μM ruthenium red, n=21
T2 construct: expressed in transfected cells; host or cells: HEK293T (ATCC CRL-11268), pcDNA5/FRT
Method: as §1, §3, §2

trigeminal neurons [2] = experiment: Fluo-3 calcium imaging of cultured mouse trigeminal neurons; settings: 1 μM PGE2 + modulator: SC-51089 10 μM, U73122 3 μM, U73343 3 μM, BIM 1 μM, chelerythrine 1 μM, H-89 10 μM

T1 sequence (O75762 whole entry): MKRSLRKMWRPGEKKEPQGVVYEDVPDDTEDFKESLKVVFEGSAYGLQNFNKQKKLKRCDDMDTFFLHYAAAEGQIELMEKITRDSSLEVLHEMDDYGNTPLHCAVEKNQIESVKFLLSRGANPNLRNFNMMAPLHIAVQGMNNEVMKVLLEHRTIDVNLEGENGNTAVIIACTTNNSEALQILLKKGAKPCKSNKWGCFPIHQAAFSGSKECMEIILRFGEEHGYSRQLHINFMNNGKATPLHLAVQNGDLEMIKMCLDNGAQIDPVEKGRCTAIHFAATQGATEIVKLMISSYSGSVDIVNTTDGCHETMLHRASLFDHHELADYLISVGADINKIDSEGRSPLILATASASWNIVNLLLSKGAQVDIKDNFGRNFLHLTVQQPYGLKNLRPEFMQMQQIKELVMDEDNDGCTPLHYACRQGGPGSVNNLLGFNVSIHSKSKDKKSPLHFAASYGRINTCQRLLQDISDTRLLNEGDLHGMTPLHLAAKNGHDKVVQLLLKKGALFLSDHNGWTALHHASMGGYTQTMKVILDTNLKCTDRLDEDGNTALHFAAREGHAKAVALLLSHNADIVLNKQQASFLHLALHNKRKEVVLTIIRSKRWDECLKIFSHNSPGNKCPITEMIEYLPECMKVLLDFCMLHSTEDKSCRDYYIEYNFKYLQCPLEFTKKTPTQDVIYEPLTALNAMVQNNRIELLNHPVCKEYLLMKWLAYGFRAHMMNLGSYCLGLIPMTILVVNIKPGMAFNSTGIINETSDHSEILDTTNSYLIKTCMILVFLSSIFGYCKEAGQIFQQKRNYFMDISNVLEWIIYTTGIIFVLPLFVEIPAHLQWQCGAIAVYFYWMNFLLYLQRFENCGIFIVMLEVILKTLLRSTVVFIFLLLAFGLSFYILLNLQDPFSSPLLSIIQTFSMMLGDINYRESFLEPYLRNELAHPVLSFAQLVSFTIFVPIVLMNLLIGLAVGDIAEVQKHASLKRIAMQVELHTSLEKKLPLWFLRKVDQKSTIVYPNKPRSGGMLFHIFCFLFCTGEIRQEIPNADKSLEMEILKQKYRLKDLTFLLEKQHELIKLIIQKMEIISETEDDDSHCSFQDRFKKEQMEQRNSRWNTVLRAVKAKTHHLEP
T2 sequence (Q8BLA8 whole entry): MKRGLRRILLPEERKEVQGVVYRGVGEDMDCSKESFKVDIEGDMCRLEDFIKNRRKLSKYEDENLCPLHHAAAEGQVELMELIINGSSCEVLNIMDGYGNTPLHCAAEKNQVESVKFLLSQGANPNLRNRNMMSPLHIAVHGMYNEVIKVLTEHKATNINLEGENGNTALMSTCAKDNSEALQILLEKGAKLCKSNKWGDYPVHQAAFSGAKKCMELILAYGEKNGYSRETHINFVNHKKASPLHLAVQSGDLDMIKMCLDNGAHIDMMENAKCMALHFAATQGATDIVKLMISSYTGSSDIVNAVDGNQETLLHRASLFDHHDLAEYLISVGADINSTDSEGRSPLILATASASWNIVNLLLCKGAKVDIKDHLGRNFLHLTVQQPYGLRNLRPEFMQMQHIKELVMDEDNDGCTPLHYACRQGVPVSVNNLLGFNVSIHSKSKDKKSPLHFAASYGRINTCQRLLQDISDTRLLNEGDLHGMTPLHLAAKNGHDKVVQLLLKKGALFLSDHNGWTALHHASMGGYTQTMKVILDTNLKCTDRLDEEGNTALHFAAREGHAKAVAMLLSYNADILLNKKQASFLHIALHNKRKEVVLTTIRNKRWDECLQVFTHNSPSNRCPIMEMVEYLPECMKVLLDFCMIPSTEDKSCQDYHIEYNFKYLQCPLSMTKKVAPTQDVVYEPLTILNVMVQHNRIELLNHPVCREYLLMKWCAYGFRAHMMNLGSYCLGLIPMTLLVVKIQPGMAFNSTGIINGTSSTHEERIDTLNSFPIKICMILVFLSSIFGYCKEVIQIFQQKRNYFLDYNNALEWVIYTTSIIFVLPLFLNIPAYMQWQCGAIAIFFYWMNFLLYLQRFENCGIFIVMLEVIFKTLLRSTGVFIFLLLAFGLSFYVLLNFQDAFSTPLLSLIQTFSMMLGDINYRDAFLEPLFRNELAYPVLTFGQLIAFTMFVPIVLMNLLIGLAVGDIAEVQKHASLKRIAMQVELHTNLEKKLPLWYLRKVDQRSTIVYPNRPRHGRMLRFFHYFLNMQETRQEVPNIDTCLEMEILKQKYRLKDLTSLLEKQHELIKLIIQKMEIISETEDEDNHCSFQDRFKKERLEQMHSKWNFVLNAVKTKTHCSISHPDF

CC12CCC(CC1=O)C2(C)C (stereo not drawn) [camphor]
suppression of cinnamaldehyde-evoked licking/flicking behaviors (ICR mice): suppressed
duration of suppressive effect on PGE2-potentiated sensitization (ICR mice; 100 mM acetaldehyde + 1 μM PGE2 + 10 mM camphor): 8 min
suppression of the effect of co-injection of acetaldehyde and PGE2 (ICR mice; 100 mM acetaldehyde + 1 μM PGE2 + 10 mM camphor, intradermal): suppressed
suppression of acetaldehyde-evoked licking/flicking behaviors (ICR mice; intradermal): suppressed
suppression of acetaldehyde-evoked intracellular calcium influx (hTRPA1) (hTRPA1): completely suppressed
inhibition of acetaldehyde-evoked current in trigeminal neurons (trigeminal neurons [1]): inhibited
inhibition of acetaldehyde-evoked current in TRPA1 expressing cells (TRPA1; 1 mM acetaldehyde + 2 mM camphor): inhibited
suppression of acetaldehyde-evoked intracellular calcium influx (mTRPA1) (mTRPA1): suppressed

SC-51089
suppression of the PGE2-induced potentiation of acetaldehyde responses (trigeminal neurons [2]): significantly suppressed

bisindolmaleimide [BIM]
suppression of the PGE2-induced potentiation of acetaldehyde responses (trigeminal neurons [2]): significantly suppressed

O=CC=Cc1ccccc1 [cinnamaldehyde]
acute hindpaw licking/flicking behavior elicited (ICR mice; intradermal into hindpaw, 10 μl, 100 mM acetaldehyde or 10 mM cinnamaldehyde, 10 min, n=5): time spent in licking/flicking behaviors increased
elevation of intracellular calcium levels in hTRPA1-expressing cells (hTRPA1): TRPA1-specific responses; also recorded: responded
whole-cell current response in TRPA1 expressing cells (TRPA1; 1 mM acetaldehyde, 300 μM cinnamaldehyde, voltage ramp -80 to +80 mV, n=5): responsive

[Cl][Gd]([Cl])[Cl] [GdCl3]
suppression of nociceptive behaviors at a micromolar dose (ICR mice; 100 μM GdCl3, intradermal): significantly suppress
suppression of cinnamaldehyde-evoked licking/flicking behaviors (ICR mice): suppressed
suppression of acetaldehyde-evoked licking/flicking behaviors (ICR mice; intradermal): suppressed
inhibition of acetaldehyde-evoked current in trigeminal neurons (trigeminal neurons [1]): inhibited

COc1ccc2c(c1)CC[C@@H]1[C@@H]2CC[C@]2(C)[C@@H](NCCCCCCN3C(=O)C=CC3=O)CC[C@@H]12 [U73122]
suppression of the PGE2-induced potentiation of acetaldehyde responses (trigeminal neurons [2]): significantly suppressed

COc1ccc2c(c[n+](C)c3c4cc5c(cc4ccc23)OCO5)c1OC [chelerythrine]
suppression of the PGE2-induced potentiation of acetaldehyde responses (trigeminal neurons [2]): significantly suppressed

CC(=O)O [acetic acid]
elevation of intracellular calcium levels in hTRPA1-expressing cells (hTRPA1): failed to elevate intracellular calcium levels

O=S(=O)(NCCNC/C=C/c1ccc(Br)cc1)c1cccc2cnccc12 [H-89]
suppression of the PGE2-induced potentiation of acetaldehyde responses (trigeminal neurons [2]): did not suppress

COc1ccc2c(c1)CC[C@@H]1[C@@H]2CC[C@]2(C)[C@@H](NCCCCCCN3C(=O)CCC3=O)CC[C@@H]12 [U73343]
suppression of the PGE2-induced potentiation of acetaldehyde responses (trigeminal neurons [2]): did not suppress

N.N.N.N.N.N.N.N.N.N.N.N.N.N.[Cl-].[Cl-].[Cl-].[Cl-].[Cl-].[Cl-].[O-2].[O-2].[Ru+3].[Ru+3].[Ru+4] [ruthenium red]
suppression of acetaldehyde-evoked licking/flicking behaviors (ICR mice; intradermal): suppressed
suppression of acetaldehyde-evoked intracellular calcium influx (hTRPA1) (hTRPA1): so did; also recorded: suppressed
suppression of acetaldehyde-evoked intracellular calcium influx (mTRPA1) (mTRPA1): suppressed

CO [methanol]
elevation of intracellular calcium levels in hTRPA1-expressing cells (hTRPA1): failed to elevate intracellular calcium levels

CCO [ethanol]
elevation of intracellular calcium levels in hTRPA1-expressing cells (hTRPA1): failed to elevate intracellular calcium levels
